Assay results reported in patent US9290484B2, “Furyl and thienyl triazole derivatives and therapeutic uses thereof” (University of Medicine and Dentistry of New Jersey, priority 2013, dated 2016).
≈ marks a conversion by molar mass, not a printed value.

Experiments:
E. coli = experiment: microbe, parasite or virus in culture; conditions: for Antibacterial MIC E. Coli: serial two-fold dilutions, IA = Inactive
Protocol: (§1) Compounds were tested using E. coli, G. vaginalis or S. aureus. Bacteria were grown on appropriate media containing a range of concentrations of the test compounds which were obtained by serial two-fold dilutions. Concentrations used were at least twice the MIC to at least ½ the break point for susceptibility to inhibition. MICs were determined spectrophotometrically by measuring changes in absorbance of bacterial cultures in the absence and presence of the test compounds.

G. vaginalis = experiment: Antibacterial MIC, G. vaginalis; format: cell-based, Gardnerella vaginalis; conditions: serial two-fold dilutions, IA = Inactive
Protocol: as §1

[1] = tested on: nitric oxide production induced by gamma interferon in PAM212 keratinocytes; conditions: read-out: Nitric oxide inhibition IC50, 100 U/ml gamma interferon, nitrite at 72 hours
Protocol: The assay for measurement of anti-inflammatory activity is based on the ability of the cytokine gamma interferon to induce the formation of nitric oxide synthase and subsequently of nitric oxide itself in keratinocytes.
For each assay the cells were inoculated into a 24-well tissue culture plate at 250,000 cells per well in growth medium. After 24 hours the medium was changed to phenol red and serum-free DMEM containing 100 U/ml of gamma interferon. Nitric oxide production was thereby initiated and at 72 hours post inoculation was quantified spectrophotometrically by measuring the accumulation of nitrite in the culture medium using the Greiss reagent. This was done by drawing an aliquot of the culture medium and mixing it with equal volumes of 1.0% sulfanilamide and 0.1% N-1-naphthylethylene diamine in 50% phosphoric acid. […] Compounds according to the present invention were assayed for their anti-inflammatory activity by examining their ability to suppress nitric oxide production in this assay.

Compound | MIC (E. coli; Escherichia coli, read-out: Antibacterial MIC E. Coli) [µg/mL] | MIC (G. vaginalis; Gardnerella vaginalis) [µg/mL] | IC50 [1] [µM] | Antibacterial MIC E. Coli (E. coli) [µg/mL] | Antibacterial MIC G. Vaginalis (G. vaginalis) [µg/mL]
O=C1CN(/N=C/c2ccc([N+](=O)[O-])o2)C(=O)N1 [NF, Nitrofurantoin, reference compound] | 1.2 (≈ 5.04 µM) | 11.9 (≈ 50 µM) | – | – | –
O=[N+]([O-])c1ccccc1C=CC=Nn1c(S)nnc1-c1cccs1 [Compound 3a, 4-[Imino-(3-(−2-nitrophenyl)-2-ethylenyl)]-3-mercapto-5-(2-thienyl)-4H-1,2,4-triazole] | – | – | 14 | – | –
O=[N+]([O-])c1ccc(C=Nn2c(S)nnc2-c2cccs2)o1 [Compound 3d] | – | – | – | 16.0 | 3.2
O=[N+]([O-])c1ccc(C=CC=Nn2c(S)nnc2-c2ccco2)o1 [Compound 3c, 4-[imino-(3-(5-nitro-2-furyl)-2-ethylenyl)]-3-mercapto-5-(2-furoyl)-4H-1,2,4-triazole] | – | – | – | 16.6 | 16.6
